Counter-ions that a name gives are not always drawn. Like-named read-outs stand apart in the source and are kept apart here.
System: HIV-1 strain 92HT599
Test: Antiviral activity against HIV-1 strain 92HT599 in MT2 cells (p24 estimation)
Assay type: cell-based
Settings: HIV-1 92HT599, ~96 hours
Procedure: Example 77: Evaluation of Compounds Antiviral Activity Against HIV-1 Strain 92HT599 in MT2 Cells
MT2 cells were infected with HIV-1 strain 92HT599 (10 TCID 50/30000 cells). The infected cells were plated at the concentration of 30,000 cells per well in 96 well plate. Test compound was added to the micro plate in defined format with the final concentration of DMSO (vehicle) is not more than 1%. Incubation was carried out in CO2 incubator for ˜96 hours for viral infection. At the end of incubation period an aliquot from each well was taken for p24 estimation. The quantitation of p24 is an index for antiviral activity of the compound. Percent inhibition was calculated with reference to control values (vehicle controls). p24 estimation was carried out using Advance biosciences kit as per the procedure detailed by supplier.

[1] = Human immunodeficiency virus 1, 0% serum binding assay, read-out: IC50 0% serum
[2] = Human immunodeficiency virus 1, 40% serum binding assay, read-out: IC50 40% serum

Compound	IC50 [1] [nM]	IC50 [2] [nM]
CC(C)C1=C2[C@H]3CC[C@@H]4[C@@]5(C)CC[C@H](OC(=O)[C@H]6C[C@@H](C(=O)O)C6(C)C)C(C)(C)[C@@H]5CC[C@@]4(C)[C@]3(C)CC[C@@]2(NC(=O)C(C)(C)NC(=O)C2(c3ccc(Cl)cc3)CC2)CC1=O [Example 2, (1R,3S)-3-((((3aR,5aR,5bR,7aR,9S,11aR,11bR,13aS)-3a-(2-(1-(4-chlorophenyl)cyclopropane-1-carboxamido)-2-methylpropanamido)-1-isopropyl-5a,5b,8,8,11a-pentamethyl-2-oxo-3,3a,4,5,5a,5b,6,7,7a,8,9,10,11,11a,11b,12,13,13a-octadecahydro-2H-cyclopenta[a]chrysen-9-yl)oxy)carbonyl)-2,2-dimethylcyclobutane-1-carboxylic acid]	3.01 to 10	< 50
CC(C)C1=C2[C@H]3CC[C@@H]4[C@@]5(C)CC[C@H](OC(=O)[C@H]6C[C@@H](C(=O)O)C6(C)C)C(C)(C)[C@@H]5CC[C@@]4(C)[C@]3(C)CC[C@@]2(NC(=O)C(C)(C)NC(=O)c2ccccc2)CC1=O [Example 3, (1R,3S)-3-((((3aR,5aR,5bR,7aR,9S,11aR,11bR,13aS)-3a-(2-benzamido-2-methylpropanamido)-1-isopropyl-5a,5b,8,8,11a-pentamethyl-2-oxo-3,3a,4,5,5a, 5b,6,7,7a,8,9,10,11,11a,11b,12,13,13a-octadecahydro-2H-cyclopenta[a]chrysen-9-yl)oxy)carbonyl)-2,2-dimethylcyclobutane-1-carboxylic acid]	< 3	< 50
CC(C)C1=C2[C@H]3CC[C@@H]4[C@@]5(C)CC[C@H](OC(=O)[C@H]6C[C@@H](C(=O)O)C6(C)C)C(C)(C)[C@@H]5CC[C@@]4(C)[C@]3(C)CC[C@@]2(NC(=O)C(C)(C)NC(=O)c2ccc(Cl)c(Cl)c2)CC1=O [Example 4, (1R,3S)-3-((((3aR,5aR,5bR,7aR,9S,11aR,11bR,13aS)-3a-(2-(3,4-dichlorobenzamido)-2-methylpropanamido)-1-isopropyl-5a,5b,8,8,11a-pentamethyl-2-oxo-3,3a,4,5,5a,5b,6,7,7a,8,9,10,11,11a,11b,12,13,13a-octadecahydro-2H-cyclopenta[a]chrysen-9-yl)oxy)carbonyl)-2,2-dimethylcyclobutane-1-carboxylic acid]	< 3	< 50
CC(C)C1=C2[C@H]3CC[C@@H]4[C@@]5(C)CC[C@H](OC(=O)[C@H]6C[C@@H](C(=O)O)C6(C)C)C(C)(C)[C@@H]5CC[C@@]4(C)[C@]3(C)CC[C@@]2(NC(=O)C(C)(C)NC(=O)c2ccc(N)nc2)CC1=O [Example 6, (1R,3S)-3-((((3aR,5aR,5bR,7aR,9S,11aR,11bR,13aS)-3a-(2-(6-aminonicotinamido)-2-methylpropanamido)-1-isopropyl-5a,5b,8,8,11a-pentamethyl-2-oxo-3,3a,4,5,5a,5b,6,7,7a,8,9,10,11,11a,11b,12,13,13a-octadecahydro-2H-cyclopenta[a]chrysen-9-yl)oxy)carbonyl)-2,2-dimethylcyclobutane-1-carboxylic acid]	< 3	50 to 200
CC(C)C1=C2[C@H]3CC[C@@H]4[C@@]5(C)CC[C@H](OC(=O)[C@H]6C[C@@H](C(=O)O)C6(C)C)C(C)(C)[C@@H]5CC[C@@]4(C)[C@]3(C)CC[C@@]2(NC(=O)C(C)(C)NC(=O)[C@@H]2CCCN2C(=O)OC(C)(C)C)CC1=O [Example 8]	< 3	< 50
CCN1CCN(CC(=O)NC(C)(C)C(=O)N[C@@]23CC[C@]4(C)[C@H](CC[C@@H]5[C@@]6(C)CC[C@H](OC(=O)[C@H]7C[C@@H](C(=O)O)C7(C)C)C(C)(C)[C@@H]6CC[C@]54C)C2=C(C(C)C)C(=O)C3)CC1 [Example 9, (1R,3S)-3-((((3aR,5aR,5bR,7aR,9S,11aR,11bR,13aS)-3a-(2-(2-(4-ethylpiperazin-1-yl)acetamido)-2-methylpropanamido)-1-isopropyl-5a,5b,8,8,11a-pentamethyl-2-oxo-3,3a,4,5,5a,5b,6,7,7a,8,9,10,11,11a,11b,12,13,13a-octadecahydro-2H-cyclopenta[a]chrysen-9-yl)oxy)carbonyl)-2,2-dimethylcyclobutane-1-carboxylic acid]	< 3	> 200
CC(C)C1=C2[C@H]3CC[C@@H]4[C@@]5(C)CC[C@H](OC(=O)[C@H]6C[C@@H](C(=O)O)C6(C)C)C(C)(C)[C@@H]5CC[C@@]4(C)[C@]3(C)CC[C@@]2(NC(=O)C(C)(C)NC(=O)CN2CCCCC2)CC1=O [Example 10, (1R,3S)-3-((((3aR,5aR,5bR,7aR,9S,11aR,11bR,13aS)-1-isopropyl-5a,5b,8,8,11a-pentamethyl-3a-(2-methyl-2-(2-(piperidin-1-yl)acetamido)propan amido)-2-oxo-3,3a,4,5,5a,5b,6,7,7a,8,9,10,11,11a,11b,12,13,13a-octadecahydro-2H-cyclopenta[a]chrysen-9-yl)oxy)carbonyl)-2,2-dimethylcyclobutane-1-carboxylic acid]	< 3	< 50
CC(C)C1=C2[C@H]3CC[C@@H]4[C@@]5(C)CC[C@H](OC(=O)[C@H]6C[C@@H](C(=O)O)C6(C)C)C(C)(C)[C@@H]5CC[C@@]4(C)[C@]3(C)CC[C@@]2(NC(=O)C(C)(C)NC(=O)C(C)(C)N)CC1=O [Example 11, (1R,3S)-3-((((3aR,5aR,5bR,7aR,9S,11aR,11bR,13aS)-3a-(2-(2-amino-2-methylpropanamido)-2-methylpropanamido)-1-isopropyl-5a,5b,8,8,11a-pentamethyl-2-oxo-3,3a,4,5,5a,5b,6,7,7a,8,9,10,11,11a,11b,12,13,13a-octadecahydro-2H-cyclopenta[a]chrysen-9-yl)oxy)carbonyl)-2,2-dimethylcyclobutane-1-carboxylic acid hydrochloride]	< 3	50 to 200
CC(C)C1=C2[C@H]3CC[C@@H]4[C@@]5(C)CC[C@H](OC(=O)[C@H]6C[C@@H](C(=O)O)C6(C)C)C(C)(C)[C@@H]5CC[C@@]4(C)[C@]3(C)CC[C@@]2(NC(=O)C(C)(C)NC(=O)c2ccc3[nH]cnc3c2)CC1=O [Example 12, (1R,3S)-3-((((3aR,5aR,5bR,7aR,9S,11aR,11bR,13aS)-3a-(2-(1H-benzo[d]imidazole-5-carboxamido)-2-methylpropanamido)-1-isopropyl-5a,5b,8,8,11a-pentamethyl-2-oxo-3,3a,4,5,5a,5b,6,7,7a,8,9,10,11,11a,11b,12,13,13a-octadecahydro-2H-cyclopenta[a]chrysen-9-yl)oxy)carbonyl)-2,2-dimethylcyclobutane-1-carboxylic acid]	< 3	50 to 200
Cc1ccc(-c2nc3cc(C(=O)NC(C)(C)C(=O)N[C@@]45CC[C@]6(C)[C@H](CC[C@@H]7[C@@]8(C)CC[C@H](OC(=O)[C@H]9C[C@@H](C(=O)O)C9(C)C)C(C)(C)[C@@H]8CC[C@]76C)C4=C(C(C)C)C(=O)C5)ccc3[nH]2)cn1 [Example 13, (1R,3S)-3-((((3aR,5aR,5bR,7aR,9S,11aR,11bR,13aS)-1-isopropyl-5a,5b,8,8,11a-pentamethyl-3a-(2-methyl-2-(2-(6-methylpyridin-3-yl)-1H-benzo[d]imidazole-5-carboxamido)propanamido)-2-oxo-3,3a,4,5,5a,5b,6,7,7a,8,9,10,11,11a,11b,12,13,13a-octadecahydro-2H-cyclopenta[a]chrysen-9-yl)oxy)carbonyl)-2,2-dimethylcyclobutane-1-carboxylic acid]	< 3	< 50
CC(C)C1=C2[C@H]3CC[C@@H]4[C@@]5(C)CC[C@H](OC(=O)[C@@H]6C[C@H](C(=O)O)C6(C)C)C(C)(C)[C@@H]5CC[C@@]4(C)[C@]3(C)CC[C@@]2(NC(=O)C(C)(C)NC(=O)c2ccc(Cl)cc2)CC1=O [Example 21, (1S,3R)-3-((((3aR,5aR,5bR,7aR,9S,11aR,11bR,13aS)-3a-(2-(4-chlorobenzamido)-2-methylpropanamido)-1-isopropyl-5a,5b,8,8,11a-pentamethyl-2-oxo-3,3a,4,5,5a,5b,6,7,7a,8,9,10,11,11a,11b,12,13,13a-octadecahydro-2H-cyclopenta[a]chrysen-9-yl)oxy)carbonyl)-2,2-dimethylcyclobutane-1-carboxylic acid]	3.01 to 10	< 50
CC(C)C1=C2[C@H]3CC[C@@H]4[C@@]5(C)CC[C@H](OC(=O)[C@H]6C[C@@H](C(=O)O)C6(C)C)C(C)(C)[C@@H]5CC[C@@]4(C)[C@]3(C)CC[C@@]2(NC(=O)C(C)(C)NC(=O)c2ccc(F)cc2)CC1=O [Example 22, (1R,3S)-3-((((3aR,5aR,5bR,7aR,9S,11aR,11bR,13aS)-3a-(2-(4-fluorobenzamido)-2-methylpropanamido)-1-isopropyl-5a,5b,8,8,11a-pentamethyl-2-oxo-3,3a, 4,5,5a,5b,6,7,7a,8,9,10,11,11a,11b,12,13,13a-octadecahydro-2H-cyclopenta[a]chrysen-9-yl)oxy)carbonyl)-2,2-dimethylcyclobutane-1-carboxylic acid]	< 3	< 50
Cc1ccc(C(=O)NC(C)(C)C(=O)N[C@@]23CC[C@]4(C)[C@H](CC[C@@H]5[C@@]6(C)CC[C@H](OC(=O)[C@H]7C[C@@H](C(=O)O)C7(C)C)C(C)(C)[C@@H]6CC[C@]54C)C2=C(C(C)C)C(=O)C3)cc1 [Example 23, (1R,3S)-3-((((3aR,5aR,5bR,7aR,9S,11aR,11bR,13aS)-1-isopropyl-5a,5b,8,8,11a-pentamethyl-3a-(2-methyl-2-(4-methylbenzamido)propanamido)-2-oxo-3,3a,4,5,5a,5b,6,7,7a,8,9,10,11,11a,11b,12,13,13a-octadecahydro-2H-cyclopenta[a]chrysen-9-yl)oxy)carbonyl)-2,2-dimethylcyclobutane-1-carboxylic acid]	< 3	< 50

Source: patent US11034718B2, “C-3 novel triterpenone with C-17 reverse amide derivatives as HIV inhibitors” (HETERO LABS LIMITED, priority 2015, dated 2021)
